Molecular target: T1, E. coli MetK (Escherichia coli, UniProt P0A817)
T1 sequence (P0A817 2-384): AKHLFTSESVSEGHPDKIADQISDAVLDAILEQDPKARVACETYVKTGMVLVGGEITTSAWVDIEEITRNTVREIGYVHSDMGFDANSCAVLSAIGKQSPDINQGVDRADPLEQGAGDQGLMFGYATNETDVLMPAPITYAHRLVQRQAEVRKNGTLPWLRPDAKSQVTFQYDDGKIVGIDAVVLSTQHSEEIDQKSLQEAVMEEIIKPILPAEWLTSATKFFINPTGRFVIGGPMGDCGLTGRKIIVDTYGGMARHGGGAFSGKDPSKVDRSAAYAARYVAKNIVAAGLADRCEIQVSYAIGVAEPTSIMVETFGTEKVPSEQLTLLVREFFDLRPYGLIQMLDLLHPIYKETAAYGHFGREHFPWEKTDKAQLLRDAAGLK
Assay: preparative synthesis of […]-methyl S-adenosyl methionine
Format: biochemical
Settings: co-substrate 1 mM L-methionine methyl-13C; pH 8.2, 100 mM KCl, 10 mM MgCl2, 30 °C

Compound: Nc1ncnc2c1ncn2[C@@H]1O[C@H](COP(=O)(O)OP(=O)(O)OP(=O)(O)O)[C@@H](O)[C@H]1O [ATP]
- preparative synthesis of 13C-methyl S-adenosyl methionine: synthesized from methionine and ATP by the E. coli MetK enzyme

Reference: paper PMC4986899 (RNA, 2016)
